Converted amounts (≈) assume the structure as drawn. Read-outs that look alike come from different tables or passages of the source.
Key:
[1] = test system: Pseudomonas aeruginosa cystic fibrosis isolate 3206; test: microbe, parasite or virus in culture; format: cell-based; conditions: strain 3206, MDR, LpxC inhibitors, MIC key class, read-out: MIC
Procedure: (§1) Bacterial isolates were cultivated from −70° C. frozen stocks by two consecutive overnight passages at 35° C. in ambient air on 5% blood agar (Remel, Lenexa, Kans.). Clinical isolates tested were from a collection composed of isolates collected during clinical trials and recent clinical isolates obtained from various geographically diverse hospitals in the US. Quality control and primary panel strains were from the American Type Culture Collection (ATCC; Rockville, Md.), with the exception of P. aeruginosa PAO200, a strain with a deletion of the mexABoprM genes that was received from Dr. H. Schweizer.
(§2) Minimum Inhibitory Concentrations (MICs) were determined by the broth microdilution method in accordance with the National Committee for Clinical Laboratory Standards (NCCLS) guidelines. In brief, organism suspensions were are adjusted to a 0.5 McFarland standard to yield a final inoculum between 3×10^5 and 7×10^5 colony-forming units (CFU)/mL. Drug dilutions and inocula were made in sterile, cation adjusted Mueller-Hinton Broth (Remel). An inoculum volume of 100 μl was added to wells containing 100 μl of broth with 2-fold serial dilutions of drug. All inoculated microdilution trays were incubated in ambient air at 35° C. for 18-24 hours. Following incubation, the lowest concentration of the drug that prevented visible growth was recorded as the MIC.

[2] = test system: Pseudomonas aeruginosa cystic fibrosis isolate 1145; test: microbe, parasite or virus in culture; format: cell-based; conditions: strain 1145, MDR, LpxC inhibitors, MIC key class, read-out: MIC
Procedure: as §1, §2

E. coli 25922 = test: MIC broth microdilution, standard panel: E. coli 25922; format: cell-based; conditions: Escherichia coli, standard panel of organisms
Method in brief: (§3)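 NCCLS broth microdilution, CAMHB, 2-fold drug series. Inoculum from 0.5 McFarland suspension, final 3×10^5–7×10^5 CFU/mL. 35° C., ambient air, 18-24 h. MIC = lowest conc. with no visible growth.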

[3] = test system: Pseudomonas aeruginosa cystic fibrosis isolate 3317; test: MIC vs cystic fibrosis isolate of P. aeruginosa 3317 (resistant to aztreonam); format: cell-based; conditions: strain 3317, Aztr. R, LpxC inhibitors, MIC key class
Procedure: as §1, §2

[4] = test system: non-CF clinical isolates of P. aeruginosa; test: MIC vs non-CF clinical isolates of P. aeruginosa; format: cell-based; conditions: Pseudomonas aeruginosa, MIC key class
Procedure: as §1, with “Schweizer. […] Strain Z61 (ATCC 35151) is also hypersusceptible to antibacterials. It is thought that the hypersusceptibility of this strain is the result of increased permeability of its outer membrane (Angus B L et al, Antimicrobial Agents and Chemotherapy 1982 21,299-309: Outer membrane permeability in Pseudomonas aeruginosa: Comparison of a wild-type with an antibacterial-supersusceptible mutant).” for “Schweizer.”
as §2, with “MIC. Performance of the assay was monitored by the use of laboratory quality-control strains against tobramycin, that has a defined MIC spectrum, in accordance with NCCLS guidelines.” for “MIC.”

P. aeruginosa LpxC = biological target: T1, P. aeruginosa LpxC (Pseudomonas aeruginosa, UniProt P47205); test: P. aeruginosa LpxC Inhibition Assay; format: biochemical
T1 sequence (P47205 1-303): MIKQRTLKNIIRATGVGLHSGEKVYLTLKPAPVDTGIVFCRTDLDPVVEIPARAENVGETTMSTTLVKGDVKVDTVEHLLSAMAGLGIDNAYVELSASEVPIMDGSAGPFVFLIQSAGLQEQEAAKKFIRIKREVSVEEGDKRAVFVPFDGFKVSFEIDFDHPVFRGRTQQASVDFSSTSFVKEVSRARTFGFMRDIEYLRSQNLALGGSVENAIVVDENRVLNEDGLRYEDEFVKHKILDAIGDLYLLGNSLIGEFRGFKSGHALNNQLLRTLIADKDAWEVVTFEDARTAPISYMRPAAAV
Procedure: The assay followed the general method of Hyland et al (Journal of Bacteriology 1997 179, 2029-2037: Cloning, expression and purification of UDP-3-O-acyl-GlcNAc deacetylase from Pseudomonas aeruginosa: a metalloamidase of the lipid A biosynthesis pathway) and the radiolabeling procedure is according to Kline et al. supra. Briefly, samples were incubated with 2 nM P. aeruginosa LpxC and 150 nM [3H-Ac]-UDP-3-OR-3-hydroxydecanoyl)-GlcNAc in a total volume of 50 uL for 90 min at room temperature. Reactions were carried out in 96-well polypropylene plates in 50 mM sodium phosphate buffer, pH 7.5, containing 1 mg/mL BSA. Reactions were stopped by the addition of 180 uL of a 3% suspension of activated charcoal powder in 100 mM sodium acetate, pH 7.5. Supernatants were clarified by centrifugation. A portion of the clarified supernatant, containing the enzymatically released [3H]-acetate, was transferred to opaque white 96-well plates containing scintillation fluid. The radioactivity was measured in a Perkin-Elmer/Wallac Trilux Microbeta counter.

P. aeruginosa 27853 = test: MIC broth microdilution, standard panel: P. aeruginosa 27853; format: cell-based; conditions: Pseudomonas aeruginosa, standard panel of organisms
Method in brief: as §3

Klebsiella pneumoniae = test: MIC vs enteric organisms: Klebsiella pneumoniae; format: cell-based; conditions: K. pneu., MIC key class
Procedure: as §1, §2

Serratia marcescens = test: MIC vs enteric organisms: Serratia marcescens; format: cell-based; conditions: S. marc., MIC key class
Procedure: as §1, §2

[5] = test system: Pseudomonas aeruginosa cystic fibrosis isolate 3224; test: MIC vs cystic fibrosis isolate of P. aeruginosa 3224; format: cell-based; conditions: strain 3224, Tobra R, LpxC inhibitors, MIC key class
Procedure: as §1, §2

Proteus mirabilis = test: MIC vs enteric organisms: Proteus mirabilis; format: cell-based; conditions: P. mir., MIC key class
Procedure: as §1, §2

Burkholderia cepacia = test: MIC vs non-fermenting organisms: Burkholderia cepacia; format: cell-based; conditions: Burkholderia cepacia, B. cepacia; MIC key class; read-out: MIC
Procedure: as §1, §2

[6] = test system: Pseudomonas aeruginosa cystic fibrosis isolate 3198; test: MIC vs cystic fibrosis isolate of P. aeruginosa 3198 (sensitive to most antibacterials); format: cell-based; conditions: strain 3198, Sensitive, LpxC inhibitors, MIC key class
Procedure: as §1, §2

Enterobacter cloacae = test: MIC vs enteric organisms: Enterobacter cloacae; format: cell-based; conditions: E. clo., MIC key class
Procedure: as §1, §2

**Q.** With `CCc1ccc(-c2ccc(C(=O)N[C@H](C(=O)NO)[C@@H](C)N)cc2)cc1` [Example 779, N-{(1S,2R)-2-amino-1-[(hydroxyamino)carbonyl]propyl)-4′-ethyl-1,1′-biphenyl-4-carboxamide] as the compound, how does the MIC [1] read?
**A.** Its MIC is < 6.25 µg/mL.

**Q.** What about the MIC [2] of the same compound?
**A.** Its MIC is < 6.25 µg/mL.

**Q.** And the MIC (E. coli 25922)?
**A.** Its MIC is < 6.25 µg/mL.

**Q.** What about the MIC [3] of the same compound?
**A.** Its MIC is < 6.25 µg/mL.

**Q.** What about the MIC ([4]; P. aer 27853) of the same compound?
**A.** Its MIC is < 6.25 µg/mL.

**Q.** And the MIC ([4]; P. aer psa-6b)?
**A.** Its MIC is < 6.25 µg/mL.

**Q.** And the MIC ([4]; PAO1, P. aer. PAO1)?
**A.** The MIC was < 6.25 µg/mL.

**Q.** And the IC50 (P. aeruginosa LpxC)?
**A.** Its IC50 is < 100 nM.

**Q.** And the MIC (P. aeruginosa 27853)?
**A.** The MIC was < 6.25 µg/mL.

**Q.** And the MIC (Klebsiella pneumoniae)?
**A.** The MIC was 6.25 to 50 µg/mL (≈ 18.3 to 146 µM).

**Q.** And the MIC (Serratia marcescens)?
**A.** The MIC was < 6.25 µg/mL.

**Q.** What about the MIC [5] of the same compound?
**A.** Its MIC is < 6.25 µg/mL.

**Q.** And the MIC (Proteus mirabilis)?
**A.** The MIC was 6.25 to 50 µg/mL (≈ 18.3 to 146 µM).

**Q.** And the MIC (Burkholderia cepacia)?
**A.** The MIC was < 6.25 µg/mL.

**Q.** And the MIC [6]?
**A.** Its MIC is < 6.25 µg/mL.

**Q.** And the MIC (Enterobacter cloacae)?
**A.** The MIC was < 6.25 µg/mL.

**Q.** How did the MIC [1] turn out when `C[C@@H](O)[C@H](NC(=O)c1ccc(C#CC#Cc2ccc(NC(=O)CNc3ccccn3)cc2)cc1)C(=O)NO` [Example 801, N-{(1S,2R)-2-hydroxy-1-[(hydroxyamino)carbonyl]propyl}-4-[4-(4-{[(pyridin-2-ylamino)acetyl]amino}phenyl)buta-1,3-diynyl]benzamide] was run?
**A.** The MIC was < 6.25 µg/mL.

**Q.** What about the MIC [2] of the same compound?
**A.** The MIC was < 6.25 µg/mL.

**Q.** And the MIC (E. coli 25922)?
**A.** Its MIC is < 6.25 µg/mL.

**Q.** What about the MIC [3] of the same compound?
**A.** Its MIC is < 6.25 µg/mL.

**Q.** What about the MIC ([4]; P. aer 27853) of the same compound?
**A.** Its MIC is < 6.25 µg/mL.

**Q.** What about the MIC ([4]; P. aer psa-6b) of the same compound?
**A.** Its MIC is < 6.25 µg/mL.

**Q.** And the MIC ([4]; PAO1, P. aer. PAO1)?
**A.** Its MIC is < 6.25 µg/mL.

**Q.** What about the IC50 (P. aeruginosa LpxC; 2 nM P. aeruginosa LpxC, 90 min, room temperature, read-out: IC50 (nM), Enzyme inhibitory activity) of the same compound?
**A.** Its IC50 is < 100 nM.

**Q.** What about the MIC (P. aeruginosa 27853) of the same compound?
**A.** Its MIC is < 6.25 µg/mL.

**Q.** And the MIC (Klebsiella pneumoniae)?
**A.** Its MIC is < 6.25 µg/mL.

**Q.** What about the MIC (Serratia marcescens) of the same compound?
**A.** Its MIC is < 6.25 µg/mL.

**Q.** And the MIC [5]?
**A.** The MIC was < 6.25 µg/mL.

**Q.** What about the MIC (Proteus mirabilis) of the same compound?
**A.** Its MIC is < 6.25 µg/mL.

**Q.** And the MIC (Burkholderia cepacia)?
**A.** The MIC was 6.25 to 50 µg/mL (≈ 12.2 to 97.7 µM).

**Q.** And the MIC [6]?
**A.** The MIC was < 6.25 µg/mL.

**Q.** And the MIC (Enterobacter cloacae)?
**A.** The MIC was < 6.25 µg/mL.

Source: patent US7358359B2, “Antibacterial agents” (University of Washington, priority 2003, dated 2008)
